Entries after “also recorded” stand apart in the source; their conditions may differ. Like-named read-outs stand apart in the source and are kept apart here.
What was measured:
C57Bl/6 mice = test: Load-induced bone formation: compressive ulnar loading and dynamic histomorphometry; format: in vivo
Description: All data are shown in reference to the non-loaded contralateral limb as control. […] On day 4-6 the mice were subjected to daily axial compressive ulnar loading. Mice were placed under isoflurane anesthesia and forelimbs were placed between two loading cups controlled by an electromagnetic loading system with feedback control (Bose, ELF 3220). An initial 0.1 N preload was applied, followed by 3 N of cyclic compression applied with a 2 Hz sine wave for 120 cycles, generating a strain gage verified average peak deformation of 1895 μstrain. On day 8, mice were subcutaneously injected with calcein (10 mg/kg) and alizarin red (70 mg/kg) on day 12. Mice were euthanized on day 18 and prepared for dynamic histomorphometric analysis.
Compressive ulnar loading was applied on days 5-7 to mechanically stimulate bone (3N at 2 Hz for 120 cycles) [9].
On the final three days of drug or control injection, animals were also subjected to compressive ulnar load at a peak load of 3 N using a 2 Hz sine wave for 120 cycles, as previously described (Temiyasathit, S. et al. PLoS One 7, (2012); Lee, K. L. et al. FASEB J. 28, 1157-1165 (2014)). Contralateral limbs served as a non-loaded control. 2 days following load, mice were treated with 10 mg/kg calcein (Sigma), and 4 days later 70 mg/kg alizarin (Sigma), with mice being sacrificed 6 days later.
Dynamic histomorphometry was performed as previously described, measuring the amount and separation of calcein and alizarin labels to quantify mineralizing surface (rMS/BS), mineral apposition rate (rMAR), and bone formation rate (rBFR/BS) relative to non-loaded controls (Temiyasathit, S. et al. PLoS One 7, (2012); Lee, K. L. et al. FASEB J. 28, 1157-1165 (2014)). Left and right ulnae were dissected and preserved in ethanol. Samples were then infiltrated with methyl methacrylate, and embedded in methyl methacrylate and benzoyl peroxide. Transverse sections of the ulnar midshaft were imaged on a laser scanning confocal microscope (Olympus Fluoview FV1000). Measurements of outer bone perimeter (OP), single label perimeter (SL), double label perimeter (DL), and double label area (DA) were made in ImageJ. The mineralizing surface relative to outer bone surface (MS/BS), mineral apposition rate (MAR), and bone formation rate (BFS/BS) were calculated as:
Relative measurements—rMS/BS, rMAR, rBFR/BS—were determined by subtracting non-loaded from loaded ulnae to display differences due to mechanical load.

MLO-Y4 osteocytes [1] = test: High-throughput drug screening of primary cilia length and incidence; format: cell-based
Outline: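 MLO-Y4 osteocytes on collagen I, treated 16 h with 10 μM compound in triplicate, fixed, stained for acetylated α-tubulin and Hoechst, imaged at 40× (4 fields/well); cilia length and incidence normalized to plate DMSO controls. Hits ranked by SD from population mean, requiring ≥40% viability by nuclei count.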

MC3T3 osteoblasts = test: Flow-induced paracrine signaling: conditioned media of treated osteocytes on osteoblasts (OPN mRNA); format: cell-based; details: osteocytes treated with tubastatin 5 μM 3-4 hours; 12 hrs flow; osteoblasts cultured 24 hours
MLO-Y4 osteocytes [2] = test: Primary cilia length and incidence by immunocytochemistry (acetylated α-tubulin); format: cell-based
Description: MLO-Y4 osteocytes were cultured on collagen-coated dishes in MEMα (Life Tech) supplemented with 5% fetal bovine serum, 5% calf serum, and 1% penicillin/streptomycin at 37° C. and 5% CO2. […] These agents, or their vehicle control, were applied to cells for 16 h prior to experimentation. MTT, (methylthiazolyldiphenyl-tetrazolium bromide) assay (Sigma) was performed according to manufacturer's protocol to assess cell viability during drug treatments. Phase contrast microscopy with an Olympus CKX41 inverted microscope and 40× objective was used to assess cell morphology.
For primary cilia imaging and analysis, cells cultured on collagen I-coated glass were fixed in 10% formalin and treated with anti-acetylated α-tubulin primary antibody, 1:1, from a C3B9 hybridoma cell line (Sigma). Cilia were visualised with Alexa-Fluor 488 secondary antibody, 1:1000 (Life Technologies) and imaged with a 100× oil objective on an Olympus Fluoview FV1000 confocal microscope. Nuclei were stained with DAPI (Life Technologies). Cilia length was analyzed using Image J software.
Gene silencing was performed by siRNA mediated knockdown and compared to scramble siRNA control (Life Technologies). […]

MLO-Y4 osteocytes [3] = test: Oscillatory fluid flow-induced mRNA expression (COX-2, OPN, AC6), flow vs no flow; format: cell-based
[4] = 10 μM, 16 hours, triplicate, normalized to vehicle control, standard deviation away from the population average
[5] = AC6 siRNA, mechanically stimulated cells

CCCCCCCCCC(=O)O[C@@H]1[C@@H](C)[C@@]2(O)[C@@H](C=C(CO)C[C@@]3(O)C(=O)C(C)=C[C@@H]23)[C@@H]2C(C)(C)[C@]12OC(=O)CCCCCCCCC [4αPDD]
relative bone formation rate (rBFR/BS) compared to vehicle control (C57Bl/6 mice; 4αPDD 250 μg/kg s.c. 6 consecutive days, load day 4-6, n=3, preliminary study): did not promote a significant increase

C[C@@H](CN1CCC(n2c(=O)[nH]c3cc(Cl)ccc32)CC1)NC(=O)c1ccc2ccccc2c1 [VU 0155069]
Average Length SD Away (MLO-Y4 osteocytes [1]; [4]): 1.618 SD

CCCCC(=O)N(Cc1ccc(-c2ccccc2-c2nnn[nH]2)cc1)[C@H](C(=O)O)C(C)C [Valsartan (Diovan), Valsartan]
Average Incidence SD Away (MLO-Y4 osteocytes [1]; [4]): 1.648 SD

CC[C@]1(O)C[C@@H]2CN(CCc3c([nH]c4ccccc34)[C@@](C(=O)OC)(c3cc4c(cc3OC)N(C)[C@H]3[C@@](O)(C(=O)OC)[C@H](OC(C)=O)[C@]5(CC)C=CCN6CC[C@]43[C@@H]65)C2)C1 [Vinblastine]
Average Incidence SD Away (MLO-Y4 osteocytes [1]; [4]): 3.124 SD | Average Length SD Away (MLO-Y4 osteocytes [1]; [4]): 1.771 SD

O=C(CCCCCCC(=O)Nc1ccccc1)NO [Vorinostat]
Average Length SD Away (MLO-Y4 osteocytes [1]; [4]): 3.283 SD

CN(C)CCc1c[nH]c2ccc(C[C@H]3COC(=O)N3)cc12 [Zolmitriptan (Zomig), Zolmitriptan]
Average Incidence SD Away (MLO-Y4 osteocytes [1]; [4]): 1.521 SD

COc1cc2c(cc1OC)C1C(=O)c3c(cc4c(c3O)C=CC(C)(C)O4)OC1CO2 (stereo not drawn) [beta-TOXICAROL]
Average Length SD Away (MLO-Y4 osteocytes [1]; [4]): 1.664 SD

CN1CCc2c(c3ccccc3n2Cc2ccc(C(=O)NO)cc2)C1 [tubastatin, tubastatin A]
relative bone formation rate (rBFR) (C57Bl/6 mice; tubastatin 5 mg/kg s.c. 6 consecutive days, load day 4-6, n=3, preliminary study): did not elicit a marked change | relative bone formation rate (rBFR) (C57Bl/6 mice; tubastatin 5 mg/kg s.c. 6 consecutive days, load day 4-6, n=3, preliminary study, listed as Tubastatin): slightly decreased | decrease in active mineralizing surface (rMS/BS) (C57Bl/6 mice; tubastatin 5 mg/kg s.c. 6 consecutive days, data not shown): over 50% | osteoblast osteogenic gene (osteopontin, OPN) expression after conditioned media from flow-stimulated osteocytes (MC3T3 osteoblasts): decreased; also recorded: impaired

(S)-(+)-Niguldipine hydrochloride
Average Length SD Away (MLO-Y4 osteocytes [1]): 2.267 SD

AC6 siRNA: siRNA 5′-CCTGCCACCTACAACAGCTCAATTA-3′ (SEQ ID NO:2) (listed as DNA, chemistry not given here)
cilia incidence (MLO-Y4 osteocytes [2]; AC6 siRNA): no effect; also recorded: Neither AC6 siRNA nor fenoldopam alter cilia incidence | decrease in cilia length (MLO-Y4 osteocytes [2]; AC6 siRNA): 10%±3% | decrease of AC6 expression (MLO-Y4 osteocytes [3]; [5]): 50%±3% | decrease of flow-induced OPN expression (MLO-Y4 osteocytes [3]; [5]): 30%±3%

Gabexate mesylate
Average Incidence SD Away (MLO-Y4 osteocytes [1]; [4]): 1.87 SD

IFT88 siRNA: siRNA 5′-CCAGAAACAGATGAGGACGACCTTT-3′ (SEQ ID NO:1) (listed as DNA, chemistry not given here)
primary cilia incidence compared to scramble control (MLO-Y4 osteocytes [2]; 20 μM IFT88 siRNA, 48 hours): lower incidence; also recorded: decreases | primary cilia length compared to scramble control (MLO-Y4 osteocytes [2]; 20 μM IFT88 siRNA, 48 hours): significantly shorter; also recorded: decreased | decrease of flow-induced OPN mRNA expression compared to scramble control (MLO-Y4 osteocytes [3]; IFT88 siRNA, flow 1 h): 43%±2%

MONENSIN SODIUM
Average Length SD Away (MLO-Y4 osteocytes [1]; [4]): 1.722 SD

Ro 19-4605
Average Length SD Away (MLO-Y4 osteocytes [1]; [4]): 1.584 SD

S(−)-Atenolol
Average Incidence SD Away (MLO-Y4 osteocytes [1]; [4]): 2.177 SD | Average Length SD Away (MLO-Y4 osteocytes [1]; [4]): 2.057 SD

— US20190015423A1, “REGULATION OF GENE EXPRESSION BY MODULATING PRIMARY CILIA LENGTH” (THE TRUSTEES OF COLUMBIA UNIVERSITY IN THE CITY OF NEW YORK, priority 2016, published 2019)
